In patent US20190002427A1, “STEREOISOMER OF FLOCOUMAFEN, COMPOSITION AND RODENTICIDE BAIT COMPRISING SAME, AND METHOD FOR CONTROLLING TARGET RODENT PESTS” (priority 2015, published 2019):

Columns and labels:
[1] = format: in vivo, Sprague-Dawley rats; conditions: relative to the other configurational stereoisomers; in words
Protocol: About 0.525 g (±0.025 g) of rat liver is weighed out accurately and placed in a 50 mL polypropylene tube. 10 mL of acetone are added and the suspension is homogenized using an Ultra-Turrax® homogenizer/disperser for a time of about 30 seconds. The homogenizer/disperser shaft is rinsed with hot water and then twice with 20 mL of acetone in a polypropylene tube. The homogenate is centrifuged for 5 minutes at a centrifugation speed of 3000 rpm (revolutions per minute). The supernatant is collected and transferred into a test tube. The sample is subjected to evaporation under a stream of nitrogen (N2) at a temperature of 40° C. so as to form a dry extract.
1 mL of acetonitrile is added to the tube containing the dry extract so as to dissolve it. […]
The configurational stereoisomers of flocoumafen are separated by high-pressure liquid chromatography using a LUX® Cellulose-4 chiral column (00F-4490-B0, Phenomenex, Le Pecq, France) as stationary phase and a mixture formed from acetonitrile (A) and water comprising 0.1% by volume of formic acid (B), with an A/B volume ratio of 92/8, as mobile phase with a flow rate of the liquid mobile phase in the chromatography column of 0.25 mL/minute. […] In particular, the MRM (“Multiple Reaction Monitoring”) transitions m/z 541.1→382.1 and m/z 541.1→161, corresponding to the flocoumafen signal, are detected. […]

target rodent pests = experiment: Rodenticidal efficacy; format: in vivo; conditions: relative to the other configurational stereoisomers; in words, no data shown

## O=c1oc2ccccc2c(O)c1C1CC(c2ccc(OCc3ccc(C(F)(F)F)cc3)cc2)Cc2ccccc21 (single isomer, unassigned) [Enantiomer E4, flocoumafen]
[1]
  Persistence in the liver: more persistent in the liver of the target rodent pests
Target rodent pests
  Rodenticidal efficacy: increased rodenticidal efficacy relative to the other configurational stereoisomers
